These results are taken from US20040029953A1, “Use of neuropeptide-y antagonists in treatment of alcoholism” (priority 2000, published 2004).

“Also recorded” adds a separate entry of the source.

In assay [1] the test system is rats. The settings on record: cited from earlier work.
Assay [2] has as its system Long-Evans rats. The assay is described as follows: Ethanol (10% v/v) vs. water self-administration after infusion in the PVN, sucrose-faded rats with long-term ethanol history. The assay is classed as in vivo, rat. The text has this:
The effectiveness of known NPY receptor antagonists and NPY Y1-selective or Y5selective receptor antagonists in reducing craving for alcohol and reducing self-administration of alcohol can be tested in experimental animal models. Briefly, Long-Evans rats are conditioned to the laboratory environment and trained to self-administer concurrent ethanol (10% v/v) vs. water using a sucrose-fading procedure (H. H. Samson, Alcohol Clin. Exp. Res., 1986, 10:436442) as described by Hodge et al. (Alcohol, 1993, 10:191-196). Stereotaxic surgery is performed to implant injector guide cannulae aimed at the PVN. Microinjections of test compounds are given, with and without concomitant injection of NPY, into the PVN of the conditioned rats, which are then immediately given the opportunity to self-administer either water or ethanol (10% v/v). The volume of ethanol and water consumed are measured. Ethanol intake is converted from milliliters consumed to gram/kilogram body weight. Relative ethanol intake (preference) is calculated as […] of ethanol consumed divided by total fluid intake (ethanol+water […]). Drug dose effects are analyzed by one-way repeated measures analysis of variance (ANOVA). Post-hoc comparisons between drug doses and vehicle control are conducted using a paired t-test or Dunnett's t-test where appropriate (SigmaStat, Jandel, San Rafael, Calif.).
Animals. Thirty-six male Long-Evans rats (Harlan, Indianapolis, Ind.) were housed individually in Plexiglas cages. Access to water was restricted during the first day of behavioral training, but was continuously available for the remainder of the experiment. Food was always available in the home cage. In experimental chambers, ethanol (10% v/v) and water were available concurrently during daily (M-F) sessions. The animal colony room was maintained on a 12L:12D cycle with the lights on at 06:30. Experimental sessions were run during the light portion of the cycle. All experimental procedures were conducted under institutional and NIH guidelines.
Apparatus. Experimental sessions were conducted in Plexiglas chambers (27×37×21 cm) located in sound-attenuating cubicles (MED Associates, model ENV 016M, Lafayette, Ind.). Chambers were equipped with exhaust fans that masked external noise. The right wall of each chamber contained two 50-ml drinking bottles. Drug solutions were administered bilaterally through stainless steel injectors (Plastics One, Roanoke, Va.), which were connected via plastic tubing to two 1.0 μl syringes (Hamilton, Reno, Nev.). Syringes were mounted on a micro-infusion pump (Harvard Apparatus, Model 22, Natick, Mass.) set to deliver 0.5 μl/min/syringes.
Self-administration procedures. After 2 weeks of adaptation to laboratory housing conditions, fluid access was restricted to 1-h per day (for 2 days only) and two groups of rats (n=12 per group) were trained to drink from the bottles in the experimental chambers by overnight access to sucrose (10% w/v) vs. water during one overnight session. Daily 1 hour sessions were then conducted with sucrose (10% w/v) vs. water available concurrently. The location (i.e., left or right side of the chamber) of the sucrose and water solutions was alternated daily. When sucrose and water intake patterns stabilized, the rats were trained to self-administer concurrent ethanol (10% v/v) vs. water using a sucrose-fading procedure (H. H. Samson, Alcohol Clin. Exp. Res., 1986, 10:436-442) as previously described (e.g., Hodge et al., 1993). Briefly, ethanol was gradually added to the sucrose solution and then sucrose was faded out of the solution until rats were self-administering 10% ethanol vs. water. During the 2-month sucrose-fading procedure, the location of the ethanol/sucrose solution and water were alternated daily.

Assay [3] deals with rats trained to self-administer ethanol vs. water. As to the kind of experiment: Microinjection in the central nucleus of the amygdala (CeA), ethanol vs. water self-administration. The class given is in vivo, rat. How it is done:
FIG. 4 depicts a dose response curve showing the effects the NPY-Y1 antagonist BIBP 3226 in the central nucleus of the Amygdala.
To further elucidate the role of NPY receptors in alcohol-seeking behavior, the NPY-Y1 […] BIBP 3226 was injected in the central nucleus of the amygdala (CeA) of rats trained to self-administer ethanol vs. water as described (Kelley et al., 2001 Peptides 22: 515-522). The CeA was chosen as an additional test site because, in addition to the hypothalamus, this brain region contains significant numbers of NPY receptors.

Assay [4] deals with T1, Y1 receptor (Homo sapiens, UniProt P25929).
T1 sequence (P25929 1-384): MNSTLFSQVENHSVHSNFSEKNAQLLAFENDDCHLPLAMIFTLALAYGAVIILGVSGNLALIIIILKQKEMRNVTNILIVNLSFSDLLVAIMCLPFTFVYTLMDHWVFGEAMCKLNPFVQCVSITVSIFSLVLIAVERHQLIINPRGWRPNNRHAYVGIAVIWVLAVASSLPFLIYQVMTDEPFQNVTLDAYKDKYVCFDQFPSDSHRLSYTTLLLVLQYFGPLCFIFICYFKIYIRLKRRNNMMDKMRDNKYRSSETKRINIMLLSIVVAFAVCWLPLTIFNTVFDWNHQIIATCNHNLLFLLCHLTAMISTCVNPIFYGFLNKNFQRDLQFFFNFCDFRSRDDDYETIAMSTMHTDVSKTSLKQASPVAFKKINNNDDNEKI
To be noted: cited from earlier work.

Setting [5] is: BIBP 3226 (10.6 μm) alone in the PVN.

For the molecule `N=C(N)NCCC[C@@H](NC(=O)C(c1ccccc1)c1ccccc1)C(=O)NCc1ccc(CNC(N)=O)cc1.O=C(O)C(F)(F)F` [BIBO 3304, (R)-N-[[4-(aminocarbonylaminomethyl)-phenyl]methyl]-N^2-(diphenylacetyl)arginine amide trifluoroacetate], the “food intake induced by application of NPY or by fasting” value in assay [1] (rats) is “significantly inhibits food intake”.

As to `N=C(N)NCCC[C@@H](NC(=O)C(c1ccccc1)c1ccccc1)C(=O)NCc1ccc(O)cc1` [BIBP 3226, (R)-N^2-(diphenylacetyl)-N-[(4-hydroxyphenyl)methyl]-D-arginine amide], in assay [2] (setting [5]), the ethanol intake entry is given as “no significant effect”, the ethanol preference entry was “no significant effect” and the water intake result was “no significant effect”. Also, the “NPY-induced increase in ethanol intake” value in assay [2] (BIBP 3226 co-administered with NPY (10 fmol) in the PVN) was “completely blocked”. For the same molecule, in assay [3] (BIBP 3226 in the CeA, highest dose, 1-hour sessions, vs vehicle, p<0.05), the “dose of self-administered ethanol” value is recorded as “reduced ethanol self-administration after infusion of the highest dose; also recorded: significantly reduced alcohol self-administration; also recorded: significantly reduced the dose of alcohol that was self-administered”. Further, the water intake entry in assay [3] (BIBP 3226 injected in the CeA) is “no effect on water intake”.

On to “NPY 2-36: an N-terminal truncated NPY fragment”, for which the “affinity for the Y1 receptor subtype” value in assay [4] is listed as “low potency”.

As to “[Pro^34]-NPY: Y1 agonist that stimulates feeding”, the “food intake relative to that seen following the injection of NPY” value in assay [1] (rat, in vivo) is reported as “approximately 50%”.
